Publication PMC10698726 (Molecular Pharmaceutics, 2023)
Read-outs that look alike come from different tables or passages of the source.

Key:
[1] = biological target: T1, OCT3 (Homo sapiens, UniProt O75751); experiment: Inhibition of model substrate uptake in OCT3-overexpressing HEK293 cells; type: cell-based; conditions: for IC50: 2 μM ASP+ or ethambutol as model substrate
T1 construct: expressed in transfected cells; host or cells: HEK293
T1 sequence (O75751 1-556): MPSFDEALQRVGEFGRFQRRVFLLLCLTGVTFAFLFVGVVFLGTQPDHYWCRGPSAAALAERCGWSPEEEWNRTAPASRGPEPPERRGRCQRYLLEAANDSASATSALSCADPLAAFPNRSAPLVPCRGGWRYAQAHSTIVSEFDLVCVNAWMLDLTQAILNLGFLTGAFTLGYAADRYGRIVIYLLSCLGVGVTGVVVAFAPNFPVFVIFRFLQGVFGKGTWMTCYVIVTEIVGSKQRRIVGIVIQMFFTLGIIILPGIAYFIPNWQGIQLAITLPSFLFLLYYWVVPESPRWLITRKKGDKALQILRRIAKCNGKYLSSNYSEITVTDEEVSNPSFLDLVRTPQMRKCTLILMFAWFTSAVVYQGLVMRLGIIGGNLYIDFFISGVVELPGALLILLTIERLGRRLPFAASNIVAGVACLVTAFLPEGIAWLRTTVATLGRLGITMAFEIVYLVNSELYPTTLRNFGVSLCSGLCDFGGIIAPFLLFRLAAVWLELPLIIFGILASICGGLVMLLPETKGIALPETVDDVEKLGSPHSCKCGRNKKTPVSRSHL
In short: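 IC50 values were fitted with a Hill equation from net uptake, calculated as uptake in overexpressing HEK293 cells minus empty-vector control uptake. Cells were exposed for 5 min to 2 μM model substrate alone, with 20 μM inhibitor, or with a concentration series. Uptake was quantified by ASP^+ fluorescence or LC–MS/MS after lysis in 80% acetonitrile.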

[2] = biological target: T1, OCT3; experiment: Concentration-dependent uptake of model substrates, OCT3-overexpressing HEK293 cells; type: in vitro ADME; conditions: vmax over Km, this study
Procedure: Koepsell and Gorbulev (University of Würzburg, Germany).
Prior to inhibition studies, the used model substrates were validated in concentration-dependent uptake experiments if no literature data were available (Table S2 and Figures S2 and S3). Thereby, we ensured that the model substrate concentration used in the subsequent inhibition experiments was sufficiently below the Km value of its uptake kinetics. […] On the day of the experiment, the cells were washed once with prewarmed to 37 °C HBSS (Thermo Fisher Scientific, Darmstadt, Germany) supplemented with 10 mM HEPES and pH adjusted to 7.4 (Sigma-Aldrich)—hereafter termed HBSS+. For concentration-dependent experiments, the cells were incubated with increasing substrate concentrations for 2 min. Uptake was terminated by adding ice-cold HBSS+. Afterward, the cells were washed twice with ice-cold HBSS+, and cell lysis was done with 80% (v/v) acetonitrile (LGC Standards, Wesel, Germany) to which an internal standard for eventual LC–MS/MS analysis had been added. Intracellularly accumulated substrates were then quantified by LC–MS/MS analysis, and calibration was performed with known concentrations of the respective substances. All uptake data were normalized to the number of seeded cells by measuring the total protein content in radioimmunoprecipitation assay buffer-lysed cells in a bicinchoninic acid assay.[29]

[3] = HEK293, 5 min, read-out: (S,S)-Ethambutol inhibition [%], OCT3, 20 μM inhibitor, 2 μM (S,S)-ethambutol, 5 min
[4] = HEK293, OCT3, 20 μM inhibitor, 2 μM ASP+, 5 min, read-out: ASP+ inhibition [%]

inhibition at 20 µM ([1]; HEK293, 5 min, read-out: (S)-Zolmitriptan inhibition [%], OCT3, 20 μM inhibitor, 2 μM (S)-zolmitriptan, 5 min) [%]	inhibition at 20 µM [1, 3] [%]	inhibition at 20 µM [1, 4] [%]	IC50 ([1]; IC50, OCT3, Table S5, 5 min) [µM]	Stereoselectivity (x-fold for the named isomer) ([1]; OCT3, Table S5, ratio of the IC50 values of both isomers, label = isomer named in the cell (as a rule the one with the higher IC50)) [fold]	(S)-Zolmitriptan inhibition [%] ([1]; OCT3, 20 μM inhibitor, 2 μM (S)-zolmitriptan, 5 min)	Clint ± SEM [2]	IC50 ([1]; OCT3, Table S5, 5 min, read-out: IC50) [µM]	fold more potent in the inhibition of OCT3 than the respective counterpart ([1]; OCT3, label = the more potent enantiomer) [fold]	SMILES
18.4	30.2	6.1							CCCN[C@H]1CCc2nc(N)sc2C1 [(S)-Pramipexole]
	64.7	31.3	65	1.6	42.2				CCN(CC)CC#CCOC(=O)[C@](O)(c1ccccc1)C1CCCCC1 [(R)-Oxybutynine]
	55	38.5				24.0	17.3	25	CN(C)CCc1c[nH]c2ccc(C[C@H]3COC(=O)N3)cc12 [(S)-Zolmitriptan]
